From patent publication US20200046835A1, “Systems, Methods, and Compositions For Cross-Linking Treatments of an Eye” (Avedro, Inc., priority 2014, published 2020)

Assays:
corneal collagen [1] = experiment: Papain digest fluorescence of pig corneal flaps (collagen cross-linking); details: for fluorescence of the corneal samples after digestion with papain (excitation 360 nm), compared to controls not exposed to UV: phosphate buffer, UV 365 nm, 30 mW/cm^2, pulsed 1 s on:1 s off, 8 min, oxygen; for fluorescence (relative to untreated controls) recorded at 450 nm: FeSO4 0.5 mM added to 0.1% riboflavin
Method: Corneal flaps were soaked in either distilled water or diluted H2O2 (1%) for 20 minutes. Flaps soaked in H2O2 were either rinsed twice with distilled water or removed from H2O2 and placed in 0.1% FeSO4 solution in distilled water for an additional 20 minute soak followed by a 2× rinse with distilled water. Flaps were dried in a vacuum until the weight change became less than 10% (Rotary vane vacuum pump RV3 A652-01-903, BOC Edwards, West Sussex, UK). Each flap was digested for 2.5 hours at 65° C. with 2.5 units/ml of papain (from Papaya latex, Sigma) in 1 ml of papain buffer [EBBS (pH 7.0-7.2), 2 mM L-cysteine and 2 mM EDTA]. Papain digests were centrifuged for 5 seconds at 2200×G (Mini centrifuge 05-090-100, Fisher Scientific), diluted 0.5 times with BBBS and fluorescence of the solutions was measured with excitation of λex=360 nm in a QM-40 Spectrofluorometer (Photon Technology Int., London, Ontario, Canada). The fluorescence of the papain buffer was taken into account by measuring fluorescence in the absence of tissue and subtracting this value from the fluorescence of the samples. […]
(§1) Pig eyes were shipped overnight on ice from an abattoir (SiouxPreme, Sioux City, Iowa), rinsed in saline. Eyes were cleaned and epithelium was removed. […] If specified, eyes were placed in a beaker with a light oxygen stream for 2 minutes in the incubation chamber prior to irradiation. Corneas were pan-corneally irradiated with a top hat beam (3% root mean square) for the chosen time (4 or 8 minutes) with 365-nm light source (UV LED NCSU033B[T]; Nichia Co., Tokushima, Japan) at the chosen irradiance (30 mW/cm^2, pulsed or non-pulsed) which was measured with a power sensor (model PD-300-UV; Ophir, Inc., Jerusalem, Israel) at the corneal surface. Corneal flaps (approximately 200 μm thick) were excised from the eyes with aid of Intralase femtosecond laser (Abbot Medical Optics, Santa Ana, Calif.). The average thickness of the corneal flaps was calculated as a difference between the measurements before and after the excision from the eyes with an ultrasonic Pachymeter (DGH Technology, Exton, Pa.). The flaps were placed into a biaxial extensometer (CellScale Biotester 5000, Waterloo, ON), using biorake attachments with 5 tines spanning a width of 3 mm. Each sample was stretched at a constant rate of 4 μm/s in saline at 37° C. until sample failure. The flaps were washed with distilled water 2 times, dried with filter paper, washed with dH2O two times, and then dried in a vacuum until the weight change became less than 10% (Rotary vane vacuum pump RV3 A652-01-903, BOC Edwards, West Sussex, UK). Each flap was digested for 2.5 hours at 65° C. with 2.5 units/ml of papain (from Papaya latex, Sigma) in 1 ml of papain buffer [BBBS (pH 7.0-7.2), 2 mM L-cysteine and 2 mM EDTA]. Papain digests were centrifuged for 5 seconds at 2200×G (Mini centrifuge 05-090-100, Fisher Scientific), diluted 0.5 times with 1× BBBS and fluorescence of the solutions was measured with excitation of λex=360 nm in a QM-40 Spectrofluorometer (Photon Technology Int., London, Ontario, Canada). The fluorescence of the papain buffer was taken into account by measuring fluorescence in the absence of tissue and subtracting this value from the fluorescence of the samples.
(§2) Oxygen was supplied continuously to the beaker during the time of exposure.
as §2

corneal collagen [2] = experiment: Biaxial extensometry (tensiometry) of pig corneal flaps; details: for stiffening of corneal sample (displacement vs. force curves), compared to the unexposed controls: phosphate buffer, UV 365 nm, 30 mW/cm^2, pulsed 1 s on:1 s off, 8 min, oxygen; for corneal stiffness (displacement-force diagrams): 1% solution in dH2O
Method: as §1, §2
Oxygen was supplied continuously to the beaker during the time of exposure. Corneal flaps were cut at approximately 200 μm.
Pig eyes were shipped overnight on ice from an abattoir (SiouxPreme, Sioux City, Iowa), rinsed in saline. Eyes were cleaned and epithelium was removed. […] Corneas were pan-corneally irradiated with a top hat beam (3% root mean square) for 4 minutes with 365-nm light source (UV LED NCSU033B[T]; Nichia Co., Tokushima, Japan) at irradiance 30 mW/cm^2, which was measured with a power sensor (model PD-300-UV; Ophir, Inc., Jerusalem, Israel) at the corneal surface. Corneal flaps (approximately 200 μm thick) were excised from the eyes with aid of Intralase femtosecond laser (Abbott Medical Optics, Santa Ana, Calif.). The average thickness of the corneal flaps was calculated as a difference between the measurements before and after the excision from the eyes with an ultrasonic Pachymeter (DGH Technology, Exton, Pa.). The flaps were then placed into a biaxial extensometer (CellScale Biotester 5000, Waterloo, ON), using biorake attachments with 5 tines spanning a width of 3 mm. Each sample was stretched at a constant rate of 4 μm/s in saline at 37° C. until sample failure. The flaps were washed with distilled water, dried in a vacuum until the weight change became less than 10% (Rotary vane vacuum pump RV3 A652-01-903, BOC Edwards, West Sussex, UK). Each flap was digested for 2.5 h at 65° C. with 2.5 units/ml of papain (from Papaya latex, Sigma) in 1 ml of papain buffer [EBBS (pH 7.0-7.2), 2 mM L-cysteine and 2 mM EDTA].

human serum albumin = human serum albumin (Homo sapiens, UniProt P02768); details: irradiated in the presence of human serum albumin; cited from earlier work
corneal collagen [3] = experiment: Papain digest fluorescence of pig corneal flaps (collagen cross-linking); details: 0.1% in BBBS, de-oxygenated with argon, irradiated 4 min at 30 mW/cm^2 in CO2 atmosphere
[4] = 0.4% in PBS, UVA 30 mW/cm2, 4 min CW or 8 min pulsed with O2

Sequence of human serum albumin (P02768 25-609): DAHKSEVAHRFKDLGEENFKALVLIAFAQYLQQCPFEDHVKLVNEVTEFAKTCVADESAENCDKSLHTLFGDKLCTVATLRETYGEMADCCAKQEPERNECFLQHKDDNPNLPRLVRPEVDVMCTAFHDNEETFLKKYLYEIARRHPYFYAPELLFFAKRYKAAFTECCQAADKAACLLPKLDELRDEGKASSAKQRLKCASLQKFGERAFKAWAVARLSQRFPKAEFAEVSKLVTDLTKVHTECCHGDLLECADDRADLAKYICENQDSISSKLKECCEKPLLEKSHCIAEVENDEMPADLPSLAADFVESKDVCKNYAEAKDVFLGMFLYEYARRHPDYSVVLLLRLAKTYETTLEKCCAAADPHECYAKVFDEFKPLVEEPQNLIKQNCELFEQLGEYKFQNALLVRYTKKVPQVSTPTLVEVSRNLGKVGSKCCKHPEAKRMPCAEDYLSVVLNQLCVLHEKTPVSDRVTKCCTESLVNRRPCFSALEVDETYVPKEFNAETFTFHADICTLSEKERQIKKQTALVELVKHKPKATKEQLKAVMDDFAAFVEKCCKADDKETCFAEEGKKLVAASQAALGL

## Cc1cc2nc3c(=O)[nH]c(=O)nc-3n(C[C@H](O)[C@H](O)[C@H](O)CO)c2cc1C [0.1% riboflavin, riboflavin]
Corneal collagen [1]
  fluorescence of the corneal samples after digestion with papain (excitation 360 nm), compared to controls not exposed to UV: increases
Corneal collagen [2]; CW UVA 30 mW/cm^2, 4 min, relative to controls
  average force vs. displacement measured by tensiometry: higher than the control group
Corneal collagen [2]
  stiffening of corneal sample (displacement vs. force curves), compared to the unexposed controls: significant stiffening

## CC(=O)C(C)=O [2,3-butanedione]
Corneal collagen [1]; 1% solution in dH2O, with UV light 365 nm, 30 mW for 4 min
  fluorescence output (relative to the untreated controls, Fo) recorded at 450 nm: increase
Corneal collagen [1]; 1% solution in dH2O, without UV light
  fluorescence (relative to the untreated controls, Fo) recorded at 450 nm: does not cross-link corneal flaps
Corneal collagen [2]; with UV light 365 nm, 30 mW for 4 min
  corneal stiffness (displacement-force diagrams): increase
Corneal collagen [2]; without UV light
  corneal stiffness (displacement-force diagrams): does not cross-link corneal flaps

## Nc1nc2ncc(CNc3ccc(C(=O)N[C@@H](CCC(=O)O)C(=O)O)cc3)nc2c(=O)[nH]1 [FA, Folic acid]
Corneal collagen [1]
  fluorescence of the corneal samples after digestion with papain (excitation 360 nm), compared to controls not exposed to UV: increases
Corneal collagen [2]
  stiffening of corneal sample (displacement vs. force curves), compared to the unexposed controls: significant stiffening

## O=S(=O)([O-])[O-].[Fe+2] [FeSO4, Iron(II) Sulfate]
Corneal collagen [1]; CW UVA 30 mW/cm^2, 4 min
  fluorescence (relative to untreated controls) recorded at 450 nm: increase in fluorescence
Corneal collagen [1]; PW+O2, UVA 30 mW/cm^2, 8 min (1 s on:1 s off)
  fluorescence (relative to untreated controls) recorded at 450 nm: increase in fluorescence
Corneal collagen [2]; PW+O2, UVA 30 mW/cm^2, 8 min (1 s on:1 s off), versus 0.1% riboflavin
  average force vs. displacement measured by tensiometry (biaxial tension): increase in biaxial tension

## OO [H2O2, hydrogen peroxide]
Corneal collagen [1]; 1% H2O2 soak 20 min, with or without following 0.1% Iron(II) soak 20 min, no UV
  fluorescence counts of papain digested corneal flaps (cross-linking): not

## Cc1c(C(=O)NCCO)[n+]([O-])c2ccccc2[n+]1[O-] [Olaquindox, N-(2-hydroxyethyl)-3-methyl-2-quinoxalinecarboxamide 1,4-dioxide]
Corneal collagen [1]; [4]
  relative fluorescence recorded at 450 nm of the cross-linked flaps: acquired fluorescence at 450 nm
Corneal collagen [2]; [4]
  stiffness by biaxial extensiometry of 200 μm thick corneal flaps: became stiffer
Human serum albumin
  time to complete disappearance on irradiation: ≤ 20 s

## Cc1cc2nc(C(=O)[O-])c(=O)n(C[C@H](O)[C@H](O)[C@H](O)CO)c2cc1C.O.[Na+] [sodium salt of 1,2-Dihydro-6,7-dimethyl-2-keto-1-D-ribityl-3-quinoxalinecarboxylic acid monohydrate]
Corneal collagen [1]; 0.1% in BBBS, no epithelium, 20 min soak, 30 mW/cm^2 for 4 min continuous UVA
  fluorescence of the digested corneas in the area 450 nm: elevated fluorescence
Corneal collagen [3]
  fluorescence of the digested corneal flaps (excitation 360 nm), compared with riboflavin: higher than the fluorescence of the corneal flaps cross-linked with riboflavin
